Source: patent US9809574B2, “Isoindoline or isoquinoline compounds, a process for their preparation and pharmaceutical compositions containing them” (LES LABORATOIRES SERVIER, priority 2013, dated 2017)
Where a name gives a salt, the structure may show the parent alone.

Legend:
Bcl-2 protein = Bcl-2 protein (histag-Bcl-2, UniProtKB P10415) (Homo sapiens (Human), UniProt P10415); experiment: Inhibition of Bcl-2 by the fluorescence polarisation technique; assay type: binding; conditions: fluorescence polarisation test; incubation for 2 hours; read-out: IC50 (nM) Bcl-2 FP
Sequence of Bcl-2 protein (P10415 whole entry): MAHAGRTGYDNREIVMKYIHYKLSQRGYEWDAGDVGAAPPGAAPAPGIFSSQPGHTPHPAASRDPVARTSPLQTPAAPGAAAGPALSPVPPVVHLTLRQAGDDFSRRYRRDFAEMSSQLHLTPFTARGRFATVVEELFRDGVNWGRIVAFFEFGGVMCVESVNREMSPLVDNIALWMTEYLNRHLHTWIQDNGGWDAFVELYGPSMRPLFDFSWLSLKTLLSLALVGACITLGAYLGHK
Excerpt: For partial inhibitors, the percentage fluorescence polarisation inhibition for a given concentration of the test compound is indicated.

[1] = test system: RS4; 11 leukaemia cell line; experiment: In vitro cytotoxicity, Microculture Tetrazolium Assay (MTT); assay type: cell-based; conditions: Homo sapiens, 11 cells exposed for 48 hours
Protocol: The cytotoxicity studies were carried out on the RS4; 11 leukaemia cell line and on H146 small Cell Lung Carcinoma cell line. The cells are distributed onto microplates and exposed to the test compounds for 48 hours. The cell viability is then quantified by a colorimetric assay, the Microculture Tetrazolium Assay (Cancer Res., 1987, 47, 939-942).

Row | Compound | IC50 (Bcl-2 protein) | IC50 [1]
1 | Cc1c(C(=O)N(C)c2ccc(O)cc2)cc(-c2cc3c(cc2C(=O)N2Cc4ccccc4C[C@H]2CN2CCOCC2)CN(C(=O)Oc2ccc4[nH]ccc4c2)CC3)n1C [Example 577, 1H-Indol-5-yl 6-{4-[(4-hydroxyphenyl)(methyl)carbamoyl]-1,5-dimethyl-1H-pyrrol-2-yl}-7-[(3S)-3-(morpholin-4-ylmethyl)-1,2,3,4-tetrahydroisoquinoline-2-carbonyl]-1,2,3,4-tetrahydroisoquinoline-2-carboxylate] | 5.9 nM | 4.7 nM
2 | C[C@@H]1Cc2ccccc2CN1C(=O)c1cc2c(cc1-c1cc(C(=O)N(c3ccccc3)c3ccc(O)cc3)c3n1CCCC3)CNC2 [Example 44, N-(4-Hydroxyphenyl)-3-{6-[(3R)-3-methyl-1,2,3,4-tetrahydroisoquinoline-2-carbonyl]-2,3-dihydro-1H-isoindol-5-yl}-N-phenyl-5,6,7,8-tetrahydroindolizine-1-carboxamide] | 13 nM | 443 nM
3 | C[C@@H]1Cc2ccccc2CN1C(=O)c1cc2c(cc1-c1cc(C(=O)N(C)c3ccc(O)cc3)c3n1CCCC3)CN(C(=O)COc1ccc(Cl)cc1)C2 [Example 49, 3-{2-[2-(4-Chlorophenoxy)acetyl]-6-[(3R)-3-methyl-1,2,3,4-tetrahydroisoquinoline-2-carbonyl]-2,3-dihydro-1H-isoindol-5-yl}-N-(4-hydroxyphenyl)-N-methyl-5,6,7,8-tetrahydroindolizine-1-carboxamide] | 23 nM | 58 nM
4 | Cc1c(C(=O)N(C)c2ccc(O)cc2)cc(-c2cc3c(cc2C(=O)N2Cc4ccccc4C[C@H]2C)CN(C(=O)CN2CCCCC2)CC3)n1C [Example 799, N-(4-Hydroxyphenyl)-N,1,2-trimethyl-5-{7-[(3R)-3-methyl-1,2,3,4-tetrahydroisoquinoline-2-carbonyl]-2-[2-(piperidin-1-yl)acetyl]-1,2,3,4-tetrahydroisoquinolin-6-yl}-1H-pyrrole-3-carboxamide] | 15 nM | > 150 nM
5 | C[C@@H]1Cc2ccccc2CN1C(=O)c1cc2c(cc1-c1cc(C(=O)N(C)c3ccc(O)cc3)c3n1CCCC3)CN(C(=O)COc1ccccc1Cl)C2 [Example 86, 3-{2-[2-(2-Chlorophenoxy)acetyl]-6-[(3R)-3-methyl-1,2,3,4-tetrahydroisoquinoline-2-carbonyl]-2,3-dihydro-1H-isoindol-5-yl}-N-(4-hydroxyphenyl)-N-methyl-5,6,7,8-tetrahydroindolizine-1-carboxamide] | 5.5 nM | 60 nM
6 | C[C@@H]1Cc2ccccc2CN1C(=O)c1cc2c(cc1-c1cc(C(=O)N(C)c3ccc(O)cc3)c3n1CCCC3)CN(C(=O)Oc1ccccc1)C2 [Example 45, Phenyl 5-{1-[(4-hydroxyphenyl)(methyl)carbamoyl]-5,6,7,8-tetrahydroindolizin-3-yl}-6-[(3R)-3-methyl-1,2,3,4-tetrahydroisoquinoline-2-carbonyl]-2,3-dihydro-1H-isoindole-2-carboxylate] | 15 nM | 20 nM
7 | CCCCN(C(=O)c1cc(-c2cc3c(cc2C(=O)N2Cc4ccccc4C[C@H]2CN2CCOCC2)CN(C(=O)Cc2ccccc2)CC3)n(C)c1C)c1ccc(O)cc1 [Example 232, N-Butyl-N-(4-hydroxyphenyl)-1,2-dimethyl-5-{7-[(3S)-3-(morpholin-4-ylmethyl)-1,2,3,4-tetrahydroisoquinoline-2-carbonyl]-2-(2-phenylacetyl)-1,2,3,4-tetrahydroisoquinolin-6-yl}-1H-pyrrole-3-carboxamide] | 2.9 nM | 11 nM
8 | Cc1c(C(=O)N(C)c2ccccc2)cc(-c2cc3c(cc2C(=O)N2Cc4ccccc4C[C@H]2C)CN(C(=O)Oc2cccc(N(C)CCN(C)C)c2)CC3)n1C [Example 446, 3-{[2-(Dimethylamino)ethyl](methyl)amino}phenyl 6-{1,5-dimethyl-4-[methyl(phenyl)carbamoyl]-1H-pyrrol-2-yl}-7-[(3R)-3-methyl-1,2,3,4-tetrahydroisoquinoline-2-carbonyl]-1,2,3,4-tetrahydroisoquinoline-2-carboxylate] | 4.3 nM | 14 nM
9 | Cc1c(C(=O)N(C)c2ccc(O)cc2)cc(-c2cc3c(cc2C(=O)N2Cc4ccccc4C[C@H]2C)CN(C(=O)Cc2ccc(F)cc2)C3)n1C [Example 102, 5-{2-[2-(4-Fluorophenyl)acetyl]-6-[(3R)-3-methyl-1,2,3,4-tetrahydroisoquinoline-2-carbonyl]-2,3-dihydro-1H-isoindol-5-yl}-N-(4-hydroxyphenyl)-N,1,2-trimethyl-1H-pyrrole-3-carboxamide] | 5 nM | 75 nM
10 | Cc1c(C(=O)N(C)c2ccc(O)cc2)cc(-c2cc3c(cc2C(=O)N2Cc4ccccc4C[C@H]2CN2CCOCC2)CN(C(=O)CC2CCCCC2)CC3)n1C [Example 794, 5-[2-(2-Cyclohexylacetyl)-7-[(3S)-3-(morpholin-4-ylmethyl)-1,2,3,4-tetrahydroisoquinoline-2-carbonyl]-1,2,3,4-tetrahydroisoquinolin-6-yl]-N-(4-hydroxyphenyl)-N,1,2-trimethyl-1H-pyrrole-3-carboxamide] | 4.6 nM | 70 nM
11 | COc1ccc(OC(=O)N2CCc3cc(-c4cc(C(=O)N(C)c5ccc(O)cc5)c5n4CCCC5)c(C(=O)N4Cc5ccccc5C[C@H]4CN4CCOCC4)cc3C2)cc1 [Example 121, 4-Methoxyphenyl 6-{1-[(4-hydroxyphenyl)(methyl)carbamoyl]-5,6,7,8-tetrahydroindolizin-3-yl}-7-[(3S)-3-(morpholin-4-ylmethyl)-1,2,3,4-tetrahydroisoquinoline-2-carbonyl]-1,2,3,4-tetrahydroisoquinoline-2-carboxylate] | 2.9 nM | 2.8 nM
12 | Cc1c(C(=O)N(C)c2ccc(O)cc2)cc(-c2cc3c(cc2C(=O)N2Cc4ccccc4C[C@H]2C)CN(C(=O)Oc2ccc(OCCN(C)C)cc2)CC3)n1C [Example 476, 4-[2-(Dimethylamino)ethoxy]phenyl 6-{4-[(4-hydroxyphenyl)(methyl)carbamoyl]-1,5-dimethyl-1H-pyrrol-2-yl}-7-[(3R)-3-methyl-1,2,3,4-tetrahydroisoquinoline-2-carbonyl]-1,2,3,4-tetrahydroisoquinoline-2-carboxylate] | 1.8 nM | –
13 | C[C@@H]1Cc2ccccc2CN1C(=O)c1cc2c(cc1-c1cc(C(=O)N(C)c3ccc(O)cc3)c3n1CCCC3)CCNC2 [Example 27, N-(4-Hydroxyphenyl)-N-methyl-3-{7-[(3R)-3-methyl-1,2,3,4-tetrahydroisoquinoline-2-carbonyl]-1,2,3,4-tetrahydroisoquinolin-6-yl}-5,6,7,8-tetrahydroindolizine-1-carboxamide; trifluoroacetic acid salt] | 83 nM | –
14 | C[C@@H]1Cc2ccccc2CN1C(=O)c1cc2c(cc1-c1cc(C(=O)N(C)c3ccc(O)cc3)c3n1CCCC3)CNC2 [Example 10, N-(4-Hydroxyphenyl)-N-methyl-3-{6-[(3R)-3-methyl-1,2,3,4-tetrahydroisoquinoline-2-carbonyl]-2,3-dihydro-1H-isoindol-5-yl}-5,6,7,8-tetrahydroindolizine-1-carboxamide] | 127 nM | –
15 | Cc1c(C(=O)N(C)c2ccc(O)cc2)cc(-c2cc3c(cc2C(=O)N2Cc4ccccc4C[C@H]2C)CN(C(=O)CN2CCCCC2)C3)n1C [Example 176, 5-{2-[2-(1-Piperidyl)acetyl]-6-[(3R)-3-methyl-1,2,3,4-tetrahydroisoquinoline-2-carbonyl]-2,3-dihydro-1H-isoindol-5-yl}-N-(4-hydroxyphenyl)-N,1,2-trimethyl-1H-pyrrole-3-carboxamide] | 78 nM | –
